SMILES strings stand for the structures. Several values for one entry are separate records, joined by “and”; a condition that tells them apart may be missing. Equal entries are not always repeated. Toxic doses and inconclusive results are not listed.

Here are results for ten compounds from PubChem BioAssay AID248 (DTP/NCI, 2004).

The subject of this assay is L1210 leukemia ip in BDF1 mice, survival T/C. The experiment in a line: NCI In Vivo Anticancer Drug Screen. Data for tumor model L1210 Leukemia (intraperitoneal) in B6D2F1 (BDF1) mice. The note with it: endpoint: mean survival time, higher = longer survival. The method, boiled down:
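In this screen, tumor-bearing mice given compound are compared to those given vehicle, and their survival values are reported as a treated-to-control quotient.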

The mark [1] stands for this setting: dose: 75.0 mg/kg/injection, schedule: Q01DX001 (ip), vehicle: saline.
The mark [2] stands for this setting: dose: 12.5 mg/kg/injection, schedule: Q04DX003 (ip), vehicle: saline.
Where [3] appears, read: dose: 25.0 mg/kg/injection, schedule: Q04DX003 (ip), vehicle: saline.
Setting [4] is: dose: 50.0 mg/kg/injection, schedule: Q04DX003 (ip), vehicle: saline.
Setting [5] is: dose: 100.0 mg/kg/injection, schedule: Q04DX003 (ip), vehicle: saline.

With `Nc1ncnc2c1ncn2C(C=O)OC(C=O)CO` (configuration not stated), the T/C is 123 % of control (dose: 4.37 mg/kg/injection, schedule: Q01DX009 (ip), vehicle: water); 123 % of control (dose: 4.37 mg/kg/injection, schedule: Q01DX Z (ip), vehicle: water); 157 % of control (dose: 8.75 mg/kg/injection, schedule: Q01DX Z (ip), vehicle: water); 115 % of control (dose: 8.8 mg/kg/injection, schedule: Q01DX Z (ip), vehicle: carboxymethylcellulose (CMC)); 121 % of control (dose: 13.3 mg/kg/injection, schedule: Q01DX Z (ip), vehicle: carboxymethylcellulose (CMC)); 172 % of control (dose: 17.5 mg/kg/injection, schedule: Q01DX009 (ip), vehicle: water). Besides, the T/C (dose: 17.5 mg/kg/injection, schedule: Q01DX Z (ip), vehicle: water) is 172 % of control; the T/C (dose: 30.0 mg/kg/injection, schedule: Q01DX Z (ip), vehicle: carboxymethylcellulose (CMC)) is 116 % of control; the T/C (dose: 35.0 mg/kg/injection, schedule: Q01DX Z (ip), vehicle: water) is 92 % of control; the T/C (dose: 42.0 mg/kg/injection, schedule: Q01DX Z (oral), vehicle: carboxymethylcellulose (CMC)) was 115 % of control; the T/C (dose: 45.0 mg/kg/injection, schedule: Q01DX Z (ip), vehicle: carboxymethylcellulose (CMC)) is 100 % of control and 101 % of control; the T/C (dose: 64.0 mg/kg/injection, schedule: Q01DX Z (oral), vehicle: carboxymethylcellulose (CMC)) is 107 % of control. For the same compound, the T/C (dose: 68.0 mg/kg/injection, schedule: Q01DX Z (ip), vehicle: carboxymethylcellulose (CMC)) is 105 % of control and 121 % of control; the T/C (dose: 79.0 mg/kg/injection, schedule: Q01DX009 (oral), vehicle: saline) is 109 % of control; the T/C (dose: 96.0 mg/kg/injection, schedule: Q01DX Z (oral), vehicle: carboxymethylcellulose (CMC)) was 109 % of control; the T/C (dose: 119.0 mg/kg/injection, schedule: Q01DX009 (oral), vehicle: saline) was 109 % of control; the T/C (dose: 144.0 mg/kg/injection, schedule: Q01DX Z (oral), vehicle: carboxymethylcellulose (CMC)) was 96 % of control; the T/C (dose: 178.0 mg/kg/injection, schedule: Q01DX009 (oral), vehicle: saline) is 112 % of control.

Regarding `CSc1nc(N(C)C)c2ncn(C3OC(C[N+](=O)[O-])C(OC(C)=O)C(OC(C)=O)C3OC(C)=O)c2n1` (configuration not stated), the T/C is 89 % of control (dose: 50.0 mg/kg/injection, schedule: Q04DX002 (ip), vehicle: saline); 112 % of control (dose: 100.0 mg/kg/injection, schedule: Q04DX002 (ip), vehicle: saline); 94 % of control (dose: 200.0 mg/kg/injection, schedule: Q04DX002 (ip), vehicle: saline).

For the compound `Cc1ccc[n+](CC(=O)c2ccccc2)c1`, the T/C runs as follows: (dose: 0.19 mg/kg/injection, schedule: Q04DX003 (ip), vehicle: saline) 102 % of control; (dose: 0.39 mg/kg/injection, schedule: Q01DX009 (ip), vehicle: saline) 98 % of control; (dose: 0.39 mg/kg/injection, schedule: Q04DX003 (ip), vehicle: saline) 98 % of control; (dose: 0.78 mg/kg/injection, schedule: Q01DX009 (ip), vehicle: saline) 106 % of control; (dose: 0.78 mg/kg/injection, schedule: Q04DX003 (ip), vehicle: saline) 96 % of control; (dose: 1.56 mg/kg/injection, schedule: Q04DX003 (ip), vehicle: saline) 98 % of control. Moreover, the T/C is 97 % of control under setting [1]; 90 % of control (dose: 150.0 mg/kg/injection, schedule: Q01DX001 (ip), vehicle: saline); 88 % of control (dose: 300.0 mg/kg/injection, schedule: Q01DX001 (ip), vehicle: saline).

`COc1ccc(Cl)cc1NC(=O)N(CCCl)N=O`: the T/C by setting is: (dose: 0.1 mg/kg/injection, schedule: Q01DX009 (ip), vehicle: carboxymethylcellulose (CMC)) 103 % of control; (dose: 1.0 mg/kg/injection, schedule: Q01DX001 (ip), vehicle: carboxymethylcellulose (CMC)) 122 % of control; (dose: 1.0 mg/kg/injection, schedule: Q01DX009 (ip), vehicle: Klucel (hydroxypropylcellulose) (HPC)) 105 % of control; (dose: 2.0 mg/kg/injection, schedule: Q01DX001 (ip), vehicle: carboxymethylcellulose (CMC)) 117 % of control; (dose: 2.12 mg/kg/injection, schedule: Q01DX001 (ip), vehicle: Klucel (hydroxypropylcellulose) (HPC)) 117 % of control; (dose: 4.25 mg/kg/injection, schedule: Q01DX001 (ip), vehicle: Klucel (hydroxypropylcellulose) (HPC)) 119 % of control. In addition, the T/C reads like this: (dose: 5.0 mg/kg/injection, schedule: Q01DX009 (ip), vehicle: Klucel (hydroxypropylcellulose) (HPC)) 105 % of control; (dose: 6.0 mg/kg/injection, schedule: Q01DX009 (ip), vehicle: carboxymethylcellulose (CMC)) 153 % of control; (dose: 8.8 mg/kg/injection, schedule: Q01DX009 (ip), vehicle: carboxymethylcellulose (CMC)) 166 % of control; (dose: 15.0 mg/kg/injection, schedule: Q01DX001 (ip), vehicle: carboxymethylcellulose (CMC)) 151 % of control; (dose: 17.0 mg/kg/injection, schedule: Q01DX001 (ip), vehicle: Klucel (hydroxypropylcellulose) (HPC)) 158 % of control; (dose: 17.0 mg/kg/injection, schedule: Q01DX009 (ip), vehicle: Klucel (hydroxypropylcellulose) (HPC)) 174 % of control. Also, the T/C is 100 % of control (dose: 20.0 mg/kg/injection, schedule: Q01DX009 (ip), vehicle: carboxymethylcellulose (CMC)); 151 % of control and 196 % of control (dose: 26.0 mg/kg/injection, schedule: Q01DX001 (ip), vehicle: carboxymethylcellulose (CMC)); 87 % of control (dose: 26.0 mg/kg/injection, schedule: Q01DX009 (ip), vehicle: Klucel (hydroxypropylcellulose) (HPC)); 151 % of control (dose: 30.0 mg/kg/injection, schedule: Q01DX001 (ip), vehicle: carboxymethylcellulose (CMC)); 98 % of control (dose: 30.0 mg/kg/injection, schedule: Q01DX009 (ip), vehicle: carboxymethylcellulose (CMC)); 93 % of control (dose: 40.0 mg/kg/injection, schedule: Q01DX001 (ip), vehicle: carboxymethylcellulose (CMC)). For the same compound, the T/C (dose: 75.0 mg/kg/injection, schedule: Q01DX001 (ip), vehicle: carboxymethylcellulose (CMC)) is 95 % of control.

On to `C=CC[n+]1cccc2ccccc21`, for which the T/C was 97 % of control (dose: 12.5 mg/kg/injection, schedule: Q01DX009 (ip), vehicle: saline); 98 % of control under setting [2]; 101 % of control (dose: 25.0 mg/kg/injection, schedule: Q01DX009 (ip), vehicle: saline); 104 % of control under setting [3]; 99 % of control (dose: 50.0 mg/kg/injection, schedule: Q01DX009 (ip), vehicle: saline); 98 % of control under setting [4].

As for `C[N+](C)(C)CCC1CCCCC1`, the T/C under setting [1] was 102 % of control.

With `Cc1cccc(Cl)c1NC(=O)Nc1cccc(O)c1`, the T/C was 100 % of control (dose: 100.0 mg/kg/injection, schedule: Q01DX009 (ip), vehicle: saline with Tween-80); 100 % of control (dose: 200.0 mg/kg/injection, schedule: Q01DX009 (ip), vehicle: saline with Tween-80); 97 % of control (dose: 400.0 mg/kg/injection, schedule: Q01DX009 (ip), vehicle: saline with Tween-80).

Take `Cc1cccc(C)c1NC(=O)Oc1cccc2ccccc12`: the T/C was 97 % of control (dose: 100.0 mg/kg/injection, schedule: Q01DX009 (ip), vehicle: saline); 93 % of control under setting [5]; 95 % of control (dose: 200.0 mg/kg/injection, schedule: Q01DX009 (ip), vehicle: saline); 98 % of control (dose: 200.0 mg/kg/injection, schedule: Q04DX003 (ip), vehicle: saline); 103 % of control (dose: 400.0 mg/kg/injection, schedule: Q01DX009 (ip), vehicle: saline); 100 % of control (dose: 400.0 mg/kg/injection, schedule: Q04DX003 (ip), vehicle: saline).

Turning to `CCOC(=O)/C=C/C(=O)O.[Co]`, the T/C runs as follows: under setting [2], 114 % of control; under setting [3], 118 % of control; under setting [4], 116 % of control; under setting [5], 118 % of control and 121 % of control.

Turning to `Cc1ccc([N+](=O)[O-])cc1NC(=O)N(C1CCCCC1)C1CCCCC1`, the T/C runs as follows: (dose: 100.0 mg/kg/injection, schedule: Q01DX009 (ip), vehicle: Klucel (hydroxypropylcellulose) (HPC)) 95 % of control; (dose: 200.0 mg/kg/injection, schedule: Q01DX009 (ip), vehicle: Klucel (hydroxypropylcellulose) (HPC)) 97 % of control; (dose: 400.0 mg/kg/injection, schedule: Q01DX009 (ip), vehicle: Klucel (hydroxypropylcellulose) (HPC)) 97 % of control.
